Entries after “also recorded” stand apart in the source; their conditions may differ.
Experiments:
[1] = system: locally advanced squamous cell cancer of the head and neck (LA-SCCHN); assay: Dose escalation of Debio 1143 with concurrent chemoradiotherapy (MTD determination); type: in vivo
Method: Additionally, for each Debio 1143 dose level (DL) and overall, according to variant 1 of this example: • (a) the safety profile of Debio 1143 in combination with concurrent CRT was assessed; • (b) the antitumour activity of the recommended dose (RD) of Debio 1143 in combination with concurrent CRT in the study population was evaluated. • In a variant 2 of this example, the following items (c) to (f) were explored in addition to items (a) and (b) of variant 1: • (c) the pharmacokinetics (PK) of Debio 1143 and cisplatin when administered in combination with radiation therapy, and explore the potential for drug-drug interactions of Debio 1143 in combination with cisplatin was explored; • (d) the pharmacodynamic (PDy) biomarkers of Debio 1143 activity in combination with concurrent CRT were explored; • (e) the PK/PDy, PK/efficacy, PK/safety, PDy/efficacy and PDy/safety relationships and pharmacogenetic (PGx) factors that may affect Debio 1143 PK were explored; and • (f) the pharmacogenomic and tumour PGx factors were explored.
During the screening phase, subjects were evaluated and staged using the American Joint Committee on Cancer (“AJCC”) […] staging system.
Escalating doses of Debio 1143 were added to CRT. […] The starting dose of Debio 1143 in this combination study was 100 mg/day over 14 days every 21 days. […]

[2] = system: locally advanced squamous cell cancer of the head and neck (LA-SCCHN); assay: Double-blind randomised placebo-controlled Phase II study of Debio 1143 + CRT: efficacy; type: in vivo, human; settings: for Locoregional control rate at 18 months after CRT: 200 mg/day days 1-14 q3w + cisplatin CRT, N = 48 (ITT); for complete response / partial response: of 48 patients
Method: 96 patients were randomized 95 were treated.
The primary endpoint to the study was locoregional control rate (LRC) at 18 months after CRT. Key secondary endpoints included PFS, duration of LRC, overall survival, […] and CR at 3 and 6 months after CRT completion.
The main inclusion criteria were as follows: • Previously untreated, inoperable (unresectable) Stage III, Stage IVA, or Stage IVB as per AJCC TNM staging version 7.0 (2010) • LA-SCCHN of the oral cavity, hypopharynx, larynx, or oropharynx (HPV/p16 both negative or positive) • Heavy smoking history (>10 pack-years) • Negative HIV/HBV/HCV • Performance Status by Eastern Cooperative Oncology Group (ECOG)=0 or 1.
The main exclusion criteria were as follows: • Non-compensated liver cirrhosis (Child-Pugh class C) • >75 years • Non-cisplatin eligible.
A multicentre, phase 2, double-blind, randomised, placebo-controlled study was conducted to evaluate the safety and efficacy of oral Debio 1143 at 200 mg/day on Days 1-14 of 21-Day cycles combined with concomitant cisplatin-based chemoradiotherapy in patients with LA-SCCHN. Male and female patients were eligible if they were aged 18 to 75 years with histologically confirmed LA-SCCHN and fulfilled the following criteria: previously untreated, stage III, IVa or IVb (according to the American Joint Committee on Cancer 2010 staging system [AJCC TNM v7.0 2010]) of one or more of the following sites: oral cavity, oropharynx, hypopharynx and larynx and with T 2-4, N0-3, M0 measurable disease according to Response Evaluation Criteria in Solid Tumours (RECIST), version 1⋅1. Patients were to have a smoking history of more than 10 pack-years, and no medical history of hepatitis B or hepatitis C. For patients with oropharyngeal cancer, tumour HPV-status was determined by the presence of p16 using immunohistochemistry. Other inclusion criteria included: Eastern Cooperative Oncology Group (ECOG) performance status of 0 or 1, no clinically significant cardiac disease and no clinically significant hearing impairment that would have contraindicated the use of chemotherapy with HD-cisplatin.
Exclusion criteria included nasopharyngeal, paranasal sinuses, nasal cavity tumours or thyroid cancers, squamous cell cancer involving cervical neck nodes but from unknown primary site, unknown lymph node status, metastatic disease, any prior or current treatment for invasive head and neck cancer of any kind (including, but not limited to, prior tyrosine kinase inhibitors, prior neoadjuvant therapy, prior surgical resection, or use of any investigational agent), weight loss of >10% during the previous month, non-compensated liver cirrhosis, gastro-intestinal disorders that could affect drug absorption, concurrent treatment with any other systemic anticancer therapy or concomitant treatment with any drug on the prohibited medication list, history of uncontrolled or symptomatic angina, arrhythmias, or congestive heart failure, history of another malignancy within the last 5 years with the exception of completely resected basal or squamous cell skin cancer or successfully treated in-situ carcinoma, history of non-invasive lesion or in-situ carcinoma, including in the head and neck region that was successfully treated with surgery, peripheral neuropathy (grade 2 or above), clinical hearing loss, history of allergic reactions to appropriate antiemetics, human immunodeficiency virus infection. The protocol was approved by the institutional review boards or ethics committees of all participating centres. The study was carried out in accordance with the protocol, the principles expressed in the Declaration of Helsinki, and applicable regulatory requirements. All patients provided written informed consent in advance of study-specific procedures. […]

[3] = system: locally advanced squamous cell cancer of the head and neck (LA-SCCHN); assay: Double-blind randomised placebo-controlled Phase II study of Debio 1143 + CRT: safety
Method: A double-blind randomized placebo-controlled Phase II study was conducted. […] All subjects received 100 mg/m^2 cisplatin on day 2 of each three-week cycle (up to three cycles) concomitantly with radiotherapy (RT). The subjects also received standard fractionation RT with 2 Gy/daily on five days/week for seven weeks up to 70 Gy delivered to the gross-tumor volume (GTV) and 50 Gy to eligible lymph nodes loco-regionally.
Conventional fractionated intensity modulated radiotherapy (IMRT) was delivered to the gross tumour volume (GTV, [primary tumour and involved nodes]), to a total dose of 70 Gy in 2 Gy daily fractions, for 5 days per week over 7 weeks. Primary and neck nodal areas with no tumour involvement (elective/prophylactic irradiation areas) received a total dose of 50 Gy. In accordance with the European Society of Medical Oncology guidelines, patients received prophylactic treatment with granisetron or palonosetron, dexamethasone and aprepitant, prior to and after cisplatin to prevent renal damage and emesis.
Medical history and demographics were collected at screening. Physical examination was conducted at screening, on day 1 of each cycle, at the end of study visit, at the safety follow-up visit and at each subsequent efficacy follow-up visit. Adverse events and co-medication were monitored throughout the study from signature of informed consent (28 days prior to the first dose) until 30 days after the last dose of study drug. Adverse events were graded according to Common Terminology Criteria for Adverse Events (NCI CTCAE) version 4⋅03. All information pertaining to unusual manifestations or adverse events was collected by the investigator at each visit. […] Late toxicities were defined in the protocol and monitored throughout the efficacy follow-up period until the end of study visit.

[4] = as of 21 Jul. 2020, median follow-up 33 months
[5] = first tumour evaluation, approximately 11 weeks after chemoradiotherapy
[6] = six months post chemoradiotherapy
[7] = two-year follow-up, data cut off 15 Jul. 2019

CN[C@@H](C)C(=O)N[C@H]1CN(C(=O)CC(C)C)CC[C@H]2CC[C@@H](C(=O)NC(c3ccccc3)c3ccccc3)N2C1=O [Debio 1143, (5S,8S,10aR)—N-benzhydryl-5-[[(2S)-2-(methylamino)propanoyl]amino]-3-(3-methylbutanoyl)-6-oxo-1,2,4,5,8,9,10,10a-octahydropyrrolo[1,2-a][1,5]diazocine-8-carboxamide]
efficacy versus CRT+placebo ([1]; high risk LA-SCCHN subjects): significantly improves efficacy
maximum tolerated dose (MTD) ([1]; oral daily for 14 days every three weeks, with cisplatin 100 mg/m^2 and RT 70 Gy): 200 mg
Locoregional control rate at 18 months after CRT [2]: 54%
Locoregional control rate at 18 months after CRT ([2]; listed as Debio 1143 + CRT): 54.2%
Odds Ratio for locoregional control at 18 months (Debio 1143 vs Placebo) ([2]; N = 48 per arm): 2.69
3 years OS rate ([2]; as of 21 Jul. 2020): 66%
Kaplan-Meier estimate of locoregional control at 36 months after the end of chemoradiotherapy ([2]; as of 21 Jul. 2020): 78%
hazard ratio, duration of locoregional control vs placebo ([2]; as of 21 Jul. 2020): 0.47
median duration of locoregional control ([2]; as of 21 Jul. 2020): not reached
probability of PFS at 36 months ([2]; as of 21 Jul. 2020): 72%
reduction of the risk of disease progression or death vs placebo ([2]; as of 21 Jul. 2020): 66%
hazard ratio, PFS vs placebo ([2]; as of 21 Jul. 2020, 36 months of follow up): 0.34
hazard ratio, overall survival vs placebo [2, 4]: 0.49
median OS [2, 4]: not reached
reduction of the risk of mortality vs placebo [2, 4]: 51%
median overall survival ([2]; by 24 months): not yet reached
Kaplan-Meier estimate of locoregional control at 18 months after the end of chemoradiotherapy ([2]; data cut off 15 Jul. 2019): 78%
hazard ratio, duration of locoregional control vs placebo ([2]; data cut off 15 Jul. 2019): 0.53
median duration of locoregional control ([2]; data cut off 15 Jul. 2019): not reached
median progression-free survival ([2]; data cut off 15 Jul. 2019): not reached
proportion of patients progression-free at 24 months ([2]; data cut off 15 Jul. 2019): 72%
complete response [2, 5]: 35%
partial response [2, 5]: 27%
complete response [2, 6]: 52%
partial response [2, 6]: 15%
hazard ratio, overall survival vs placebo [2, 7]: 0.65
hazard ratio, progression-free survival vs placebo [2, 7]: 0.37
patients who died ([3]; data cut off 15 Jul. 2019): 14 patients
grade 3 bilirubin increases ([3]; in vivo): no grade 3 bilirubin increases
grade 4 transaminase increases ([3]; in vivo): no grade 4 transaminase increases
patients with alanine aminotransferase increase leading to dose reduction ([3]; most common event leading to dose reduction): 10%
patients who discontinued Debio 1143 ([3]; of 48 patients): 15%
patients with adverse events of at least grade 3 ([3]; of 48 patients): 85%
patients with grade 1-2 tinnitus ([3]; of 48 patients): 31%
patients with grade 4 events ([3]; of 48 patients): 19%
patients with grade 5 events ([3]; of 48 patients): none
patients with serious treatment-emergent adverse events ([3]; of 48 patients): 63%
patients with treatment-emergent adverse events leading to dose reductions of Debio 1143 ([3]; of 48 patients): 19%
late toxicities ([3]; onset >60 days after CRT end, vs placebo): very similar and not increased; also recorded: late toxicity was balanced
frequency or severity of cisplatin-associated adverse events ([3]; renal insufficiency, febrile neutropenia, thrombocytopenia, peripheral sensory neuropathy, severe vomiting, exception grade 1-2 tinnitus): did not increase the frequency or severity
overall safety and tolerability of Debio 1143 added to chemoradiotherapy ([3]; vs placebo + CRT): well tolerated; also recorded: remained unchanged
grade 3 increases in aspartate aminotransferase and alanine aminotransferase ([3]; vs placebo group): higher
incidence of grade 3 anaemia ([3]; vs placebo group): higher incidence
incidence of grade 4 neutropenia ([3]; vs placebo group): higher incidence

Source: patent US20250268863A1, “DOSING REGIMENS FOR TREATMENT OF PATIENTS WITH LOCALLY ADVANCED SQUAMOUS CELL CARCINOMA” (priority 2019, published 2025)
